Data from US9920032B2, “Heterocyclic compounds useful as pim kinase inhibitors” (Incyte Corporation, priority 2015, dated 2018).

Legend:
Assay type in all cases: biochemical
Pim-1 = Pim-1 (Homo sapiens (Human), UniProt P11309); test: Pim-1 kinase assay; details: 1 mM ATP; read-out: PIM1 IC50
Protocol: (§1) Pim-1 and Pim-3 kinase assays—20 μL reactions were run in white 384 well polystyrene plates dotted with 0.8 μL compound/DMSO in the assay buffer (50 mM Tris, pH 7.5, 0.01% Tween-20, 5 mM mgCl2, 0.01% BSA, 5 mM DTT), containing 0.05 μM Biotin-labeled BAD peptide substrate (AnaSpec 62269), 1 mM ATP, and 2.5 pM (Pim-1, Invitrogen PV3503) or 1.25 pM (Pim-3, Millipore 14-738) enzyme for 1 h at 25° C. Reactions were stopped by addition of 10 μL STOP Buffer (150 mM Tris, pH=7.5, 150 mM NaCl, 75 mM EDTA, 0.01% Tween-20, 0.3% BSA,) supplemented with Phospho-Bad (Ser112) Antibody (Cell Signaling 9291) diluted 666-fold, and Streptavidin donor beads (PerkinElmer 6760002) along with Protein-A acceptor beads (PerkinElmer 6760137) at […]. Supplementation of the STOP buffer with beads and stopping the reactions were done under reduced light. Prior to the stopping reactions STOP buffer with beads was preincubated for 1 h in the dark at room temperature. After stopping the reactions, plates were incubated for 1 h in the dark at room temperature before reading on a PHERAstar FS plate reader (BMG Labtech) under reduced light.

Pim-2 = Pim-2 (Homo sapiens (Human), UniProt Q9P1W9); test: Pim-2 kinase assay; details: 1 mM ATP; read-out: PIM2 IC50
Sequence of Pim-2 (Q9P1W9 whole entry): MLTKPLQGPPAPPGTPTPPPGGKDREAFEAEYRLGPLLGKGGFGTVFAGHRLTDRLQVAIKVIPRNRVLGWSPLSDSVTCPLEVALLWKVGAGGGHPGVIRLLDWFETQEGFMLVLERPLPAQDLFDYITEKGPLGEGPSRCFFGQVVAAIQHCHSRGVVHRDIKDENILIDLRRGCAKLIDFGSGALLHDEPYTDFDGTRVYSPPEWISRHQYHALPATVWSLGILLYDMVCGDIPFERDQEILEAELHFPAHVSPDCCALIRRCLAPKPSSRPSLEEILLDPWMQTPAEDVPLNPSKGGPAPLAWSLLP
Protocol: Pim-2 kinase assay—20 μL reactions were run in white 384 well polystyrene plates dotted with 0.8 μL compound/DMSO in the assay buffer (50 mM Tris, pH 7.5, 0.01% Tween-20, 5 mM mgCl2, 0.01% BSA, 5 mM DTT), containing 0.05 μM Fluorescein-labeled CREBtide peptide substrate (Invitrogen PV3508), 1 mM ATP, and 1 nM enzyme (Invitrogen PV3649) for 2 h at 25° C. Reactions were stopped by addition of 10 μL TR-FRET Dilution Buffer (Invitrogen PV3574) with 30 mM EDTA and 1.5 nM LanthaScreen Tb-CREB pSer133 antibody (Invitrogen PV3566). After 30 min. incubation at room temperature, plates were read on a PHERAstar FS plate reader (BMG Labtech).

Pim-3 = Pim-3 (Homo sapiens (Human), UniProt Q86V86); test: Pim-3 kinase assay; details: 1 mM ATP; read-out: PIM3 IC50
Protocol: as §1

Sequence of Pim-1 (P11309 whole entry): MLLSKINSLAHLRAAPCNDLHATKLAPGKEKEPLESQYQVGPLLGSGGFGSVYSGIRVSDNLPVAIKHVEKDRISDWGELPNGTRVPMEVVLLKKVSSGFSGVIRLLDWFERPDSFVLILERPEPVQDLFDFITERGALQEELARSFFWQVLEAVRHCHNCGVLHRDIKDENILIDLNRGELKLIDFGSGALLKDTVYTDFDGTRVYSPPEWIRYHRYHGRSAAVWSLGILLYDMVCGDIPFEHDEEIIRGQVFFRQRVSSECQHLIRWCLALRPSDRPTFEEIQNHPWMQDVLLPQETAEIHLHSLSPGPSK

Row | Compound | IC50 (Pim-1) [nM] | IC50 (Pim-2) [nM] | IC50 (Pim-3) [nM]
1 | CCc1cc2c(F)ccc(C(=O)Nc3cnccc3[C@@H]3C[C@H](C)C[C@H](N)C3)c2nn1 [Example 92, N-{4-[(1R,3S,5S)-3-Amino-5-methylcyclohexyl]pyridin-3-yl}-3-ethyl-5-fluorocinnoline-8-carboxamide] | ≤ 10 | 1000 to 10000 | 10 to 50
2 | C[C@@H]1C[C@H](N)C[C@H](c2ccncc2NC(=O)c2ccc(F)c3cc(N4CCN(C5CC5)C(=O)C4)cnc23)C1 [Example 114, N-(4-((1R,3S,5S)-3-Amino-5-methylcyclohexyl)pyridin-3-yl)-3-(4-cyclopropyl-3-oxopiperazin-1-yl)-5-fluoroquinoline-8-carboxamide] | ≤ 10 | ≤ 100 | ≤ 10
3 | CO[C@@H]1CCN(c2cnc3c(C(=O)Nc4cnccc4[C@@H]4C[C@H](C)C[C@H](N)C4)ccc(F)c3c2)C[C@H]1F [Example 162, N-(4-((1R,3S,5S)-3-Amino-5-methylcyclohexyl)pyridin-3-yl)-5-fluoro-3-((3R,4R)-3-fluoro-4-methoxypiperidin-1-yl)quinoline-8-carboxamide] | ≤ 10 | ≤ 100 | ≤ 10
4 | C[C@@H]1C[C@H](N)C[C@H](c2ccncc2NC(=O)c2ccc(F)c3cc(N4CCCC(O)CC4)cnc23)C1 (stereo partly drawn) [Example 104, N-(4-((1R,3S,5S)-3-Amino-5-methylcyclohexyl)pyridin-3-yl)-5-fluoro-3-(4-hydroxyazepan-1-yl)quinoline-8-carboxamide] | ≤ 10 | ≤ 100 | ≤ 10
5 | C[C@@H]1C[C@H](N)C[C@H](c2ccncc2NC(=O)c2ccc(F)c3cc(N4CCCC[C@@H]4C)cnc23)C1 [Example 170, N-(4-((1R,3S,5S)-3-Amino-5-methylcyclohexyl)pyridin-3-yl)-5-fluoro-3-((S)-2-methylpiperidin-1-yl)quinoline-8-carboxamide] | ≤ 10 | 100 to 1000 | 10 to 50
6 | C[C@@H]1C[C@H](N)C[C@H](c2ccncc2NC(=O)c2ccc(F)c3cc(N(C)c4cnccc4C(F)(F)F)cnc23)C1 [Example 143, N-(4-((1R,3S,5S)-3-Amino-5-methylcyclohexyl)pyridin-3-yl)-5-fluoro-3-(methyl(4-(trifluoromethyl)pyridin-3-yl)amino)quinoline-8-carboxamide] | ≤ 10 | ≤ 100 | ≤ 10
7 | COC(=O)N1C[C@H]2C[C@@H]1CN2c1cnc2c(C(=O)Nc3cnccc3[C@@H]3C[C@H](C)C[C@H](N)C3)ccc(F)c2c1 [Example 90, (1R,4R)-Methyl 5-(8-(4-((1R,3S,5S)-3-amino-5-methylcyclohexyl)pyridin-3-ylcarbamoyl)-5-fluoroquinolin-3-yl)-2,5-diazabicyclo[2.2.1]heptane-2-carboxylate] | ≤ 10 | ≤ 100 | ≤ 10
8 | C[C@@H]1C[C@H](N)C[C@H](c2ccncc2NC(=O)c2ccc(F)c3cc(N(C)c4ccccc4)cnc23)C1 [Example 83, N-(4-((1R,3S,5S)-3-Amino-5-methylcyclohexyl)pyridin-3-yl)-5-fluoro-3-(methyl(phenyl)amino)quinoline-8-carboxamide] | ≤ 10 | ≤ 100 | ≤ 10
9 | C[C@@H]1C[C@H](N)C[C@H](c2ccncc2NC(=O)c2ccc(F)c3cc(N4CC5CC(C4)O5)cnc23)C1 [Example 81, N-(4-((1R,3S,5S)-3-Amino-5-methylcyclohexyl)pyridin-3-yl)-3-(6-oxa-3-azabicyclo[3.1.1]heptan-3-yl)-5-fluoroquinoline-8-carboxamide] | ≤ 10 | ≤ 100 | ≤ 10
10 | C[C@@H]1C[C@H](N)C[C@H](c2ccncc2NC(=O)c2ccc(F)c3cc(-c4cc(F)cc5cccnc45)cnc23)C1 [Example 59, N-(4-((1R,3S,5S)-3-Amino-5-methylcyclohexyl)pyridin-3-yl)-5,6′-difluoro-3,8′-biquinoline-8-carboxamide] | ≤ 10 | 1000 to 10000 | 10 to 50
11 | C[C@@H]1C[C@H](N)C[C@H](c2ccncc2NC(=O)c2ccc(F)c3cc(N(C)[C@@H]4CCOC4)cnc23)C1 [Example 154, N-(4-((1R,3S,5S)-3-Amino-5-methylcyclohexyl)pyridin-3-yl)-5-fluoro-3-(methyl((R)-tetrahydrofuran-3-yl)amino)quinoline-8-carboxamide] | ≤ 10 | 100 to 1000 | ≤ 10
12 | C[C@@H]1C[C@H](N)C[C@H](c2ccncc2NC(=O)c2ccc(F)c3cc(-c4cn[nH]c4)cnc23)C1 [Example 66, N-(4-((1R,3S,5S)-3-amino-5-methylcyclohexyl)pyridin-3-yl)-5-fluoro-3-(1H-pyrazol-4-yl)quinoline-8-carboxamide] | ≤ 10 | 100 to 1000 | ≤ 10
13 | CC(C)N(C)c1cnc2c(C(=O)Nc3cnccc3[C@@H]3C[C@H](C)C[C@H](N)C3)ccc(F)c2c1 [Example 56, N-(4-((1R,3S,5S)-3-Amino-5-methylcyclohexyl)pyridin-3-yl)-5-fluoro-3-(isopropyl(methyl)amino)quinoline-8-carboxamide] | ≤ 10 | ≤ 100 | ≤ 10
14 | Cc1nn(C)cc1-c1cnc2c(C(=O)Nc3cnccc3[C@@H]3C[C@H](C)C[C@H](N)C3)ccc(F)c2c1 [Example 63, N-(4-((1R,3S,5S)-3-Amino-5-methylcyclohexyl)pyridin-3-yl)-3-(1,3-dimethyl-1H-pyrazol-4-yl)-5-fluoroquinoline-8-carboxamide] | ≤ 10 | 100 to 1000 | ≤ 10
15 | C[C@@H]1C[C@H](N)C[C@H](c2ccncc2NC(=O)c2ccc(F)c3cc(N4CCOC[C@H]4C)cnc23)C1 [Example 32, N-(4-((1R,3S,5S)-3-Amino-5-methylcyclohexyl)pyridin-3-yl)-5-fluoro-3-((R)-3-methylmorpholino)quinoline-8-carboxamide] | ≤ 10 | ≤ 100 | ≤ 10
16 | Cc1nccnc1N(C)c1cnc2c(C(=O)Nc3cnccc3[C@@H]3C[C@H](C)C[C@H](N)C3)ccc(F)c2c1 [Example 149, N-(4-((1R,3S,5S)-3-Amino-5-methylcyclohexyl)pyridin-3-yl)-5-fluoro-3-(methyl(3-methylpyrazin-2-yl)amino)quinoline-8-carboxamide] | ≤ 10 | ≤ 100 | ≤ 10
17 | C[C@@H]1C[C@H](N)C[C@H](c2ccncc2NC(=O)c2ccc(F)c3cc(N4CC[C@@H](C#N)C4)cnc23)C1 [Example 8, N-{4-[(1R,3S,5S)-3-Amino-5-methylcyclohexyl]pyridin-3-yl}-3-[(3R)-3-cyanopyrrolidin-1-yl]-5-fluoroquinoline-8-carboxamide] | ≤ 10 | ≤ 100 | ≤ 10
18 | C[C@@H]1C[C@H](N)C[C@H](c2ccncc2NC(=O)c2ccc(F)c3cc(N4CCC(C)(O)CC4)cnc23)C1 [Example 41, N-(4-((1R,3S,5S)-3-Amino-5-methylcyclohexyl)pyridin-3-yl)-5-fluoro-3-(4-hydroxy-4-methylpiperidin-1-yl)quinoline-8-carboxamide] | 10 to 50 | 100 to 1000 | 10 to 50
19 | CCCN(C)c1cnc2c(C(=O)Nc3cnccc3[C@@H]3C[C@H](C)C[C@H](N)C3)ccc(F)c2c1 [Example 55, N-(4-((1R,3S,5S)-3-Amino-5-methylcyclohexyl)pyridin-3-yl)-5-fluoro-3-(methyl(propyl)amino)quinoline-8-carboxamide] | ≤ 10 | ≤ 100 | ≤ 10
20 | C[C@@H]1C[C@H](N)C[C@H](c2ccncc2NC(=O)c2ccc(F)c3cc(N(C)CC(F)(F)F)cnc23)C1 [Example 21, N-{4-[(1R,3S,5S)-3-Amino-5-methylcyclohexyl]pyridin-3-yl}-5-fluoro-3-[methyl(2,2,2-trifluoroethyl)amino]quinoline-8-carboxamide] | ≤ 10 | ≤ 100 | ≤ 10
21 | COc1ccncc1N(C)c1cnc2c(C(=O)Nc3cnccc3[C@@H]3C[C@H](C)C[C@H](N)C3)ccc(F)c2c1 [Example 150, N-(4-((1R,3S,5S)-3-Amino-5-methylcyclohexyl)pyridin-3-yl)-5-fluoro-3-((4-methoxypyridin-3-yl)(methyl)amino)quinoline-8-carboxamide] | ≤ 10 | ≤ 100 | ≤ 10
